Read-outs that look alike come from different tables or passages of the source.
Tested on: HCV 1b genotype
Assay: microbe, parasite or virus in culture
Type: cell-based
Conditions: Hepatitis C virus, HCV 1b genotype replicon
Protocol: An HCV Replicon assay was utilized in the present disclosure, and was prepared, conducted and validated as described in commonly owned PCT/US2006/022197 and in O'Boyle et. al. Antimicrob Agents Chemother. 2005 April; 49(4):1346-53. Assay methods incorporating luciferase reporters have also been used as described (Apath.com).
HCV-neo replicon cells and replicon cells containing resistance substitutions in the NSSA region were used to test the currently described family of compounds. […] Ranges are as follows: A =0.5 pM to 10 pM; B=11 pM to 90 pM; C=91 pM to 160 pM; D=[…] to 5 nM.

[1] = read-out: EC50 (Effective 50% inhibitory concentration)

Compound	EC50 (read-out: EC50 Range) [nM]	EC50 [1] [nM]
COC(=O)N[C@H](C(=O)N1CCC[C@H]1c1ncc(-c2ccc(-c3ccc(-c4cnc([C@@H]5CCCN5C(=O)[C@@H](NC(=O)OC)C5CCOCC5)[nH]4)c4ccccc34)cc2)[nH]1)C1CCOCC1 [Example 2]	0.011 to 0.09	
COC(=O)N[C@H](C(=O)N1[C@@H]2C[C@@H]2C[C@H]1c1ncc(-c2ccc(-c3ccc(-c4cnc([C@@H]5C[C@H]6C[C@H]6N5C(=O)[C@@H](NC(=O)OC)C5CCOCC5)[nH]4)c4c3CCC4)cc2)[nH]1)C1CCOCC1 [Example 4]	0.011 to 0.09	
COC(=O)NC(C(=O)N1[C@@H]2C[C@@H]2C[C@H]1c1ncc(-c2ccc(-c3cc(-c4cnc([C@@H]5C[C@H]6C[C@H]6N5C(=O)[C@@H](NC(=O)OC)C(C)C)[nH]4)cc4c3CCC4)cc2)[nH]1)C(C)C (some centres unmarked) [Example 5]	0.091 to 0.16	
COC(=O)N[C@H](C(=O)N1[C@@H](C)CC[C@H]1c1ncc(-c2ccc(-c3ccc(-c4coc([C@@H]5CC[C@H](C)N5C(=O)[C@@H](NC(=O)OC)C5CCOCC5)n4)c4c3CCC4)cc2)[nH]1)C1CCOCC1 [Example 7]	0.091 to 0.16	0.0942
COC(=O)N[C@H](C(=O)N1[C@@H]2C[C@@H]2C[C@H]1c1ncc(-c2ccc(-c3ccc(-c4cnc([C@@H]5C[C@H]6C[C@H]6N5C(=O)[C@@H](NC(=O)OC)C(C)C)[nH]4)c4nc[nH]c34)cc2)[nH]1)C(C)C [Example 12]	0.011 to 0.09	0.0409
COC(=O)N[C@H](C(=O)N1[C@@H]2C[C@@H]2C[C@H]1c1ncc(-c2ccc(-c3ccc(-c4cnc([C@@H]5C[C@H]6C[C@H]6N5C(=O)[C@@H](NC(=O)OC)C5CCOCC5)[nH]4)c4nc[nH]c34)cc2)[nH]1)C1CCOCC1 [Example 13]	0.161 to 5	4.18
COC(=O)N[C@H](C(=O)N1[C@@H](C)CC[C@H]1c1ncc(-c2ccc(-c3ccc(-c4cnc([C@@H]5CC[C@H](C)N5C(=O)[C@@H](NC(=O)OC)C5CCOCC5)[nH]4)c4nc[nH]c34)cc2)[nH]1)C1CCOCC1 [Example 14]	0.161 to 5	
COC(=O)N[C@H](C(=O)N1[C@@H]2C[C@@H]2C[C@H]1c1nc(-c2ccc(-c3ccc(-c4ccc(-c5c[nH]c([C@@H]6C[C@H]7C[C@H]7N6C(=O)[C@@H](NC(=O)OC)C(C)C)n5)cc4)c4[nH]ccc34)cc2)c[nH]1)C(C)C [Example 18]		0.00274

From patent publication US20120195857A1, “Hepatitis C Virus Inhibitors” (Bristol-Myers Squibb Company, priority 2010, published 2012)
